Data published in PubChem BioAssay AID222 (DTP/NCI, 2004).
Several values for one entry are separate records, joined by “and”; a condition that tells them apart may be missing. Equal values may be shown once. Inconclusive results and toxic doses are left out. How the source made its calls: active means survival T/C of 150% or more; inactive means T/C below 125% in these data.

Test system: C57BL/6 mice, intracerebral ependymoblastoma, median survival T/C
Assay: NCI In Vivo Anticancer Drug Screen. Data for tumor model Ependymoblastoma (intracerebral) in C57BL/6 mice
Settings: endpoint: median survival time, higher = longer survival
Protocol: The antitumor activity of compounds was measured in mice bearing transplantable tumors. Survival or tumor size were measured and the results are expressed as the measurement made in the treated group (T) divided by the measurement made in the vehicle treated control group (C). The tumor model used in this assay is Ependymoblastoma (intracerebral) in C57BL/6 mice

Measured: T/C

CCOC(=O)CNC(=O)CCCCSc1ncnc2nc[nH]c12
inactive: dose: 1.0 mg/kg/injection, schedule: Q01DX005 (ip), vehicle: Klucel (hydroxypropylcellulose) (HPC) 109 % of control | dose: 4.0 mg/kg/injection, schedule: Q01DX005 (ip), vehicle: saline 103 % of control | dose: 8.0 mg/kg/injection, schedule: Q01DX005 (ip), vehicle: Klucel (hydroxypropylcellulose) (HPC) 104 % of control | dose: 16.0 mg/kg/injection, schedule: Q01DX001 (ip), vehicle: Klucel (hydroxypropylcellulose) (HPC) 104 % of control and 105 % of control and 106 % of control | dose: 16.0 mg/kg/injection, schedule: Q01DX001 (oral), vehicle: Klucel (hydroxypropylcellulose) (HPC) 95 % of control and 102 % of control | dose: 16.0 mg/kg/injection, schedule: Q01DX005 (ip), vehicle: saline 95 % of control and 103 % of control | dose: 16.0 mg/kg/injection, schedule: Q01DX005 (oral), vehicle: Klucel (hydroxypropylcellulose) (HPC) 94 % of control | dose: 16.0 mg/kg/injection, schedule: Q#A X002 (ip), vehicle: Klucel (hydroxypropylcellulose) (HPC) 108 % of control | dose: 32.0 mg/kg/injection, schedule: Q01DX005 (ip), vehicle: Klucel (hydroxypropylcellulose) (HPC) 103 % of control and 117 % of control | dose: 32.0 mg/kg/injection, schedule: Q## X006 (ip), vehicle: Klucel (hydroxypropylcellulose) (HPC) 102 % of control | dose: 64.0 mg/kg/injection, schedule: Q01DX001 (ip), vehicle: Klucel (hydroxypropylcellulose) (HPC) 90 % of control and 100 % of control and 108 % of control | dose: 64.0 mg/kg/injection, schedule: Q01DX001 (oral), vehicle: Klucel (hydroxypropylcellulose) (HPC) 102 % of control and 103 % of control | dose: 64.0 mg/kg/injection, schedule: Q01DX005 (ip), vehicle: saline 102 % of control and 107 % of control | dose: 64.0 mg/kg/injection, schedule: Q01DX005 (oral), vehicle: Klucel (hydroxypropylcellulose) (HPC) 106 % of control | dose: 64.0 mg/kg/injection, schedule: Q## X006 (ip), vehicle: Klucel (hydroxypropylcellulose) (HPC) 120 % of control | dose: 64.0 mg/kg/injection, schedule: Q#A X002 (ip), vehicle: Klucel (hydroxypropylcellulose) (HPC) 116 % of control | dose: 128.0 mg/kg/injection, schedule: Q01DX005 (ip), vehicle: Klucel (hydroxypropylcellulose) (HPC) 113 % of control and 116 % of control | dose: 128.0 mg/kg/injection, schedule: Q## X006 (ip), vehicle: Klucel (hydroxypropylcellulose) (HPC) 106 % of control | dose: 256.0 mg/kg/injection, schedule: Q01DX001 (ip), vehicle: Klucel (hydroxypropylcellulose) (HPC) 96 % of control and 106 % of control and 113 % of control | dose: 256.0 mg/kg/injection, schedule: Q01DX001 (oral), vehicle: Klucel (hydroxypropylcellulose) (HPC) 107 % of control | dose: 256.0 mg/kg/injection, schedule: Q01DX005 (ip), vehicle: saline 92 % of control and 109 % of control | dose: 256.0 mg/kg/injection, schedule: Q01DX005 (oral), vehicle: Klucel (hydroxypropylcellulose) (HPC) 108 % of control | dose: 256.0 mg/kg/injection, schedule: Q## X006 (ip), vehicle: Klucel (hydroxypropylcellulose) (HPC) 115 % of control | dose: 256.0 mg/kg/injection, schedule: Q#A X002 (ip), vehicle: Klucel (hydroxypropylcellulose) (HPC) 114 % of control | dose: 266.0 mg/kg/injection, schedule: Q01DX005 (ip), vehicle: Klucel (hydroxypropylcellulose) (HPC) 113 % of control and 120 % of control | dose: 512.0 mg/kg/injection, schedule: Q01DX005 (ip), vehicle: Klucel (hydroxypropylcellulose) (HPC) 108 % of control | dose: 512.0 mg/kg/injection, schedule: Q## X006 (ip), vehicle: Klucel (hydroxypropylcellulose) (HPC) 105 % of control | dose: 1024.0 mg/kg/injection, schedule: Q01DX001 (ip), vehicle: Klucel (hydroxypropylcellulose) (HPC) 103 % of control and 106 % of control and 112 % of control | dose: 1024.0 mg/kg/injection, schedule: Q01DX001 (oral), vehicle: Klucel (hydroxypropylcellulose) (HPC) 91 % of control and 97 % of control | dose: 1024.0 mg/kg/injection, schedule: Q01DX005 (ip), vehicle: saline 109 % of control | dose: 1024.0 mg/kg/injection, schedule: Q01DX005 (oral), vehicle: Klucel (hydroxypropylcellulose) (HPC) 115 % of control | dose: 1024.0 mg/kg/injection, schedule: Q#A X002 (ip), vehicle: Klucel (hydroxypropylcellulose) (HPC) 99 % of control

CC[n+]1c(-c2ccccc2)c2cc(N)ccc2c2ccc(N)cc21
inactive: dose: 12.0 mg/kg/injection, schedule: Q01DX005 (ip), vehicle: saline 99 % of control

COc1cc2c3c(c1)-c1c(ccc(OC)c1OC)CC3N(CCN(CCCl)CCCl)CC2 (configuration not stated)
inactive: dose: 4.0 mg/kg/injection, schedule: Q01DX005 (ip), vehicle: saline with Tween-80 101 % of control and 108 % of control | dose: 8.0 mg/kg/injection, schedule: Q01DX005 (ip), vehicle: saline with Tween-80 104 % of control and 105 % of control | dose: 16.0 mg/kg/injection, schedule: Q01DX005 (ip), vehicle: saline with Tween-80 108 % of control | dose: 32.0 mg/kg/injection, schedule: Q01DX005 (ip), vehicle: saline with Tween-80 110 % of control
